In US12604891B2, “Antifoulant marine structures compositions and methods thereof” (THE TEXAS A&M UNIVERSITY SYSTEM, priority 2020, dated 2026):

Assays:
Format in all cases: cell-based
[1] = test system: Escherichia coli; test: Agar diffusion test, cytotoxic potential (ASTM F895); conditions: antimicrobial composition in wells punched into inoculated agar, 78° F., 24 hours; FIG. 1
Procedure: The instant example evaluated various antimicrobial compositions for cytotoxic potential. Briefly, ASTM […] is a test method useful for assessing the cytotoxic potential of new materials and formulations and as part of a quality control program for established medical devices and components. Qualitative results of the potency of various antimicrobial compositions were evaluated using this test method. […] The testing wells were then compared to one another based on the zone of inhibition of cell or spore growth created for each well. Petri dishes were place in an incubator at 78° F. for 24 hours. The zones of inhibition around each well were then compared and the best two antimicrobial compositions from this example were utilized in subsequent testing.

[2] = test system: Staphylococcus aureus; test: Antimicrobial activity under dynamic contact conditions (ASTM E2149-13a), dynamic shaker test, compositions comprising a polymer; conditions: FIG. 3
Procedure: The instant example evaluated various antifoulant compositions for antimicrobial activity under dynamic contact conditions. Briefly, ASTM E2149-13a is a test standard for determining antimicrobial activity of antimicrobial compositions under dynamic contact conditions. The 2×2 inch antifoulant composition samples from Example 1 and Example 2 were placed in sterilized 500 mL flasks with 100 mL of distilled water.
For antifoulant compositions comprising a polymer, Staphylococcus aureus (gram-positive bacteria) were added to each flask at 3×10^6 VC/mL. For antifoulant compositions comprising a composite material, Escherichia coli (gram-negative bacteria) were added to each flask at approximately 1×10^6 cells/mL. Three samples (0.1 mL each) were taken immediately from each flask and spread on TSA plates. The flasks were incubated in a 37° C. shaking incubator at 200 rpm. Three samples (0.1 mL each) were removed and plated at 1 hour intervals for three hours. Plates were left for growth at 25° C. for 60 hours. Colonies were counted using Sphere Flash and the average VC/mL or colony forming units (CFU) were documented.

[3] = test system: gram-positive and gram-negative bacteria; test: Laboratory testing, overall comparison of antimicrobials; conditions: summary
Description: E. coli is a gram-negative bacteria that has a more complicated cell wall structure which makes this bacteria more difficult to penetrate and mitigate. In contrast, S. aureus is a gram positive bacteria and is naturally more susceptible to antimicrobials and, thus, may be easier to control.

Row | Molecule | inhibition of bacterial growth per visible zone of inhibition around the sample [1] | antibacterial efficacy ([2]; S. aureus, dynamic fluid conditions, antifoulant composition comprising a polymer (HDPE)) [%] | relative antimicrobial efficacy among tested antimicrobials ([2]; antimicrobials in antifoulant compositions comprising a polymer (HDPE), dynamic flow conditions) | efficacies and performance with both gram-positive and gram-negative bacteria [3]
1 | [O]=[Zn] [zinc oxide] | demonstrated efficacy in inhibiting bacterial growth |  |  | 
2 | zinc pyrithione | demonstrated efficacy in inhibiting bacterial growth | 99.9 | most efficacious | highest efficacies and performance
